Measured values published in US20190152992A1, “BENZODIOXANE DERIVATIVES AND THEIR PHARMACEUTICAL USE” (Orion Corporation, priority 2016, published 2019).

Tests used:
[1] = target: T1, human alpha2A receptors (Homo sapiens, UniProt P08913); test: cell-based
T1 sequence (P08913 1-465): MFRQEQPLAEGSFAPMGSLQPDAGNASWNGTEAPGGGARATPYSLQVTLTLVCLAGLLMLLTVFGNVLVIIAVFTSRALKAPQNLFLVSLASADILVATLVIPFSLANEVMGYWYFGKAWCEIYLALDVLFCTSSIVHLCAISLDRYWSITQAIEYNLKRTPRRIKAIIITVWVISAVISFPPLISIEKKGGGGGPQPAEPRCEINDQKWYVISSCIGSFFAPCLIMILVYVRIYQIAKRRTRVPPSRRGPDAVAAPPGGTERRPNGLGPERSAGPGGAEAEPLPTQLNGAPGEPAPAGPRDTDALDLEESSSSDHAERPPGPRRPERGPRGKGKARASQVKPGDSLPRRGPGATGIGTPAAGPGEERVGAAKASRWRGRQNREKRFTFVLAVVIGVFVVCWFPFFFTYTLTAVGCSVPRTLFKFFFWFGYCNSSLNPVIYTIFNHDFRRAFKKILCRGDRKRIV
Experimental: Experiment 1: Determination of alpha2A and alpha2C Antagonistic Activity In Vitro
The growth medium was removed and the cells were incubated with the test compounds and the FLIPR Calcium 6 Assay reagent (Molecular Devices, CA, USA) for 2 h at 37° C. in dark. The test compounds (concentrations in cells 100 pM-10 μM) were dissolved in Probenecid-Ringer consisting of 150 mM NaCl, 3 mM KCl, 1.2 mM MgCl2, 1 mM CaCl2, 5 mM glucose, 20 mM HEPES and 2.5 mM probenecid (pH 7.4 adjusted with 1.0 M NaOH). […] All experiments were performed at 37° C. For agonism measurements the test compounds dissolved in Probenecid-Ringer were applied by FLIPR Tetra at 15 s time point. In order to determine antagonism, the cells were stimulated either with 100 nM adrenaline or noradrenaline and the test compounds were added to the cells 2 h before the experiment with the FLIPR Calcium 6 Assay reagent. […] Typically, there were four replicates at each concentration and six different dose levels. […] The minimum fluorescence value subtracted from the maximum value for each well was used in the calculations. ScreenWorks version 4.0 software was used for analyzing the results. Fitting of the antagonist dose-response results was performed with the free Hill equation and the IC50 values were fitted with IDBS XE software using model 200: y=(A+(B/(1+((x/C)̂D)))), where A is the curve maximum, B the curve minimum and C equals the EC50 value. D is slope factor (Hill). Kb was calculated with the Cheng-Prusoff equation Kb=A/((B/C)+1), where A is the IC50 of antagonist, B the concentration of agonist and C the EC50 of the agonist.

[2] = target: T2, human alpha2C receptors (Homo sapiens, UniProt P18825); test: Determination of alpha2C antagonistic activity in vitro (FLIPR calcium assay); details: for Kb: Alpha 2C Adrenaline Kb, Kb calculated from IC50 with the Cheng-Prusoff equation, adrenaline as agonist, CHO cells, human alpha2C
T2 sequence (P18825 1-462): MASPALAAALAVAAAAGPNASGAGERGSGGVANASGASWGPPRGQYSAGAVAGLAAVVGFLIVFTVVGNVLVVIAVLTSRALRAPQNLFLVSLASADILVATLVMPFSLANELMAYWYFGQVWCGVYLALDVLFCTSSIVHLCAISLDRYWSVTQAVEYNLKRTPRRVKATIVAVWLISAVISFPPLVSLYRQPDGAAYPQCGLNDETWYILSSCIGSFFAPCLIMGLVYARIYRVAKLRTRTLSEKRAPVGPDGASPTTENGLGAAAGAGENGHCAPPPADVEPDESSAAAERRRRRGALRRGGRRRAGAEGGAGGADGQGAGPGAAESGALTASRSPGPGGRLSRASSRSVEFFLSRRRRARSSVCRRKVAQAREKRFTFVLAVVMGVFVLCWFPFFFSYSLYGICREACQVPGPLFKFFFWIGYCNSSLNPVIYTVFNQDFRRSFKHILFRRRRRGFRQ

O=C1C(=O)N([C@H]2CCCN(C[C@H]3COc4ccccc4O3)C2)C(=O)N1Cc1ccccn1 [example 142, 1-((S)-1-(((S)-2,3-Dihydrobenzo[b][1,4]dioxin-2-yl)methyl)piperidin-3-yl)-3-(pyridin-2-ylmethyl)imidazolidine-2,4,5-trione]
IC50 [1]: > 10 µM | Kb [1]: > 449 nM | IC50 [2]: 0.846 nM | Kb [2]: 0.085 nM

O=C1C(=O)N([C@H]2CCCN(C[C@H]3COc4ccccc4O3)C2)C(=O)N1Cc1cccnc1 [example 143, 1-((S)-1-(((S)-2,3-Dihydrobenzo[b][1,4]dioxin-2-yl)methyl)piperidin-3-yl)-3-(pyridin-3-ylmethyl)imidazolidine-2,4,5-trione]
IC50 [1]: > 10 µM | Kb [1]: > 449 nM | IC50 [2]: 1.38 nM | Kb [2]: 0.14 nM

c1ccc2c(c1)OC[C@H](CN1CCC[C@H](n3nnc4ccccc43)C1)O2 [example 145, 1-((S)-1-(((S)-2,3-Dihydrobenzo[b][1,4]dioxin-2-yl)methyl)piperidin-3-yl)-1H-benzo[d][1,2,3]triazole]
IC50 [1]: 2.78 µM | Kb [1]: 125 nM | IC50 [2]: 0.85 nM | Kb [2]: 0.09 nM

O=S1(=O)Nc2ccccc2N1[C@H]1CCCN(C[C@H]2COc3ccccc3O2)C1 [example 146, 1-((S)-1-(((S)-2,3-Dihydrobenzo[b][1,4]dioxin-2-yl)methyl)piperidin-3-yl)-1,3-dihydrobenzo[c][1,2,5]thiadiazole 2,2-dioxide]
IC50 [1]: 7.19 µM | Kb [1]: 323 nM | IC50 [2]: 1050 nM | Kb [2]: 105 nM

Cn1c(=O)n([C@H]2CCCN(C[C@H]3COc4ccccc4O3)C2)c2ccccc21 [example 147, 1-((S)-1-(((S)-2,3-Dihydrobenzo[b][1,4]dioxin-2-yl)methyl)piperidin-3-yl)-3-methyl-1H-benzo[d]imidazol-2(3H)-one]
IC50 [1]: > 10 µM | Kb [1]: > 449 nM | IC50 [2]: 228 nM | Kb [2]: 22.9 nM

O=c1n(-c2ccccc2)c2ccccc2n1[C@H]1CCCN(C[C@H]2COc3ccccc3O2)C1 [example 149, 1-((S)-1-(((S)-2,3-Dihydrobenzo[b][1,4]dioxin-2-yl)methyl)piperidin-3-yl)-3-phenyl-1H-benzo[d]imidazol-2(3H)-one]
IC50 [1]: > 10 µM | Kb [1]: > 449 nM | IC50 [2]: 3220 nM | Kb [2]: 324 nM

Cc1nc2ccccc2n1[C@H]1CCCN(C[C@H]2COc3ccccc3O2)C1 [example 150, 1-((S)-1-(((S)-2,3-Dihydrobenzo[b][1,4]dioxin-2-yl)methyl)piperidin-3-yl)-2-methyl-1H-benzo[d]imidazole]
IC50 [1]: 4.48 µM | Kb [1]: 201 nM | IC50 [2]: < 0.1 nM | Kb [2]: < 0.01 nM

COCc1nc2ccccc2n1[C@H]1CCCN(C[C@H]2COc3ccccc3O2)C1 [example 151, 1-((S)-1-(((S)-2,3-Dihydrobenzo[b][1,4]dioxin-2-yl)methyl)piperidin-3-yl)-2-(methoxymethyl)-1H-benzo[d]imidazole]
IC50 [1]: 6.16 µM | Kb [1]: 276 nM | IC50 [2]: < 0.1 nM | Kb [2]: < 0.01 nM

CN(C)Cc1nc2ccc(Cl)cc2n1[C@H]1CCCN(C[C@H]2COc3ccccc3O2)C1 [example 152, 1-(6-Chloro-1-((S)-1-(((S)-2,3-dihydrobenzo[b][1,4]dioxin-2-yl)methyl)piperidin-3-yl)-1H-benzo[d]imidazol-2-yl)-N,N-dimethylmethanamine]
IC50 [1]: 0.288 µM | Kb [1]: 13 nM | IC50 [2]: 69.8 nM | Kb [2]: 7.03 nM

CNCc1nc2ccc(Cl)cc2n1[C@H]1CCCN(C[C@H]2COc3ccccc3O2)C1 [example 153, 1-(6-Chloro-1-((S)-1-(((S)-2,3-dihydrobenzo[b][1,4]dioxin-2-yl)methyl)piperidin-3-yl)-1H-benzo[d]imidazol-2-yl)-N-methylmethanamine]
IC50 [1]: > 10 µM | Kb [1]: > 449 nM | IC50 [2]: 3580 nM | Kb [2]: 361 nM

O=c1[nH]c2c(F)cccc2n1[C@H]1CCCN(C[C@H]2COc3ccccc3O2)C1 [example 154, 1-((S)-1-(((S)-2,3-Dihydrobenzo[b][1,4]dioxin-2-yl)methyl)piperidin-3-yl)-4-fluoro-1H-benzo[d]imidazol-2(3H)-one]
IC50 [1]: > 10 µM | Kb [1]: > 449 nM | IC50 [2]: < 0.1 nM | Kb [2]: < 0.01 nM

COc1ccc2nc(C)n([C@H]3CCCN(C[C@H]4COc5ccccc5O4)C3)c2n1 [example 155, 3-((S)-1-(((S)-2,3-Dihydrobenzo[b][1,4]dioxin-2-yl)methyl)piperidin-3-yl)-5-methoxy-2-methyl-3H-imidazo[4,5-b]pyridine]
IC50 [1]: > 10 µM | Kb [1]: > 449 nM | IC50 [2]: 56 nM | Kb [2]: 5.64 nM

Cc1nc2cccnc2n1[C@H]1CCCN(C[C@H]2COc3ccccc3O2)C1 [example 156, 3-((S)-1-(((S)-2,3-Dihydrobenzo[b][1,4]dioxin-2-yl)methyl)-piperidin-3-yl)-2-methyl-3H-imidazo[4,5-b]pyridine]
IC50 [1]: 3.58 µM | Kb [1]: 161 nM | IC50 [2]: 0.012 nM | Kb [2]: 0.001 nM

Cc1nc2ncccc2n1[C@H]1CCCN(C[C@H]2COc3ccccc3O2)C1 [example 157, 1-((S)-1-(((S)-2,3-Dihydrobenzo[b][1,4]dioxin-2-yl)methyl)-piperidin-3-yl)-2-methyl-1H-imidazo[4,5-b]pyridine]
IC50 [1]: > 10 µM | Kb [1]: > 449 nM | IC50 [2]: 1.63 nM | Kb [2]: 0.164 nM

Cc1nc2cnccc2n1[C@H]1CCCN(C[C@H]2COc3ccccc3O2)C1 [example 158, 1-((S)-1-(((S)-2,3-Dihydrobenzo[b][1,4]dioxin-2-yl)methyl)piperidin-3-yl)-2-methyl-1H-imidazo[4,5-c]pyridine]
IC50 [1]: > 10 µM | Kb [1]: > 449 nM | IC50 [2]: 3.43 nM | Kb [2]: 0.346 nM

CCc1nc2cccnc2n1[C@H]1CCCN(C[C@H]2COc3ccccc3O2)C1 [example 159, 3-((S)-1-(((S)-2,3-Dihydrobenzo[b][1,4]dioxin-2-yl)methyl)piperidin-3-yl)-2-ethyl-3H-imidazo[4,5-b]pyridine]
IC50 [1]: > 10 µM | Kb [1]: > 449 nM | IC50 [2]: 0.01 nM | Kb [2]: 0.001 nM

Cc1nc2cncnc2n1[C@H]1CCCN(C[C@H]2COc3ccccc3O2)C1 [example 160, 9-((S)-1-(((S)-2,3-Dihydrobenzo[b][1,4]dioxin-2-yl)methyl)piperidin-3-yl)-8-methyl-9H-purine]
IC50 [1]: > 10 µM | Kb [1]: > 449 nM | IC50 [2]: 0.15 nM | Kb [2]: 0.016 nM

c1ccc2c(c1)OC[C@H](CN1CCC[C@H](n3cnc4cncnc43)C1)O2 [example 161, 9-((S)-1-(((S)-2,3-Dihydrobenzo[b][1,4]dioxin-2-yl)methyl)-piperidin-3-yl)-9H-purine]
IC50 [1]: > 10 µM | Kb [1]: > 449 nM | IC50 [2]: 0.294 nM | Kb [2]: 0.03 nM

CC1(C)CCN([C@H]2CCCN(C[C@H]3COc4ccccc4O3)C2)S1(=O)=O [example 162, 2-((S)-1-(((S)-2,3-Dihydrobenzo[b][1,4]dioxin-2-yl)methyl)piperidin-3-yl)-5,5-dimethylisothiazolidine 1,1-dioxide]
IC50 [1]: > 10 µM | Kb [1]: > 449 nM | IC50 [2]: 6.13 nM | Kb [2]: 0.62 nM
